Patent US11058690B2, “Use of cytochrome bc1 complex inhibitor in preparing pharmaceutical composition” (BEIJING WEILANZHIYUAN MEDICAL TECHNOLOGY CO., LTD., priority 2017, dated 2021)
Like-named read-outs stand apart in the source and are kept apart here.

Tests used:
[1] = tested on: rat uterine smooth muscle; experiment: contraction of isolated rat uterine smooth muscle strips induced by PGF2α; format: cell-based; conditions: for IC50: read-out: IC50, inhibition of uterine smooth muscle contraction; for inhibitory effect on PGF2α-induced contraction: amplitude and frequency
Protocol: Female healthy Wistar rats weighing 230-270 g were used in the experiment. At 2 days before the experiment, Diethylstilbestrol suspension was injected intraperitoneally once at 0.1 mg/kg, resulting in artificial estrus. The rats were sacrificed by cervical dislocation, and the uterus was removed by laparotomy and immediately placed in a glass plate containing Tyrode's solution. Connective and adipose tissues attached to the uterine wall were carefully peeled off, the uterus was cut open along the mesangial line and laid flat on the bottom of the glass plate, then one side of the uterus was divided into left and right uterine muscle strips by using a surgical blade along the uterine contraction band running along smooth muscle, the two ends of the uterine muscle strip on one side were ligated with wires respectively, and then transferred into a nutrient tube which was aerated with oxygen and filled with 5 ml of Tyrode's solution and preheated to 37.2±0.5° C., with a lower end fixed and an upper end connected with a tension sensor. The materials stood for 20-30 minutes, liquid was changed 2-3 times, then the uterus was given a load of 1 g and kept for 30-60 minutes until the uterus had regular contraction waves, 40 mM KCL solution was provided for 10 minutes, and the function of the uterine muscle strips was evaluated. Then the muscle strips were relaxed and washed 2-3 times with Tyrode's solution, then let stand for 30 minutes; after standing, the uterine muscle strips were given a load of 1 g and kept for 30-60 minutes, and the administration and the observation were carried out after the uterine muscle strips contracted stably (i.e. regular contraction waveforms appear in a microcomputer display screen), the changes of relevant data such as contraction tension, amplitude and area under the contraction curve of the uterine smooth muscle strips were recorded, and the drug given was evaluated. During the experiment, the working temperature of the Tyrode's solution was kept at 37.2±0.5° C., and oxygen was continuously aerated into the nutrient tube with 1-2 bubbles per second. A cumulative dosing method was adopted, and 5 μl was administered each time, from low concentration to high concentration. A final drug concentration refers to the concentration of the drug dissolved in 5 ml Tyrode's solution in a […] tube.
Fluacrypyrim (FAPM), the first strobilurin acaricide developed by BASF SE and Nippon Soda Co., Ltd., is a Qo site inhibitor of the mitochondrial cytochrome bc1 complex. […] The area under the smooth muscle contraction curve was calculated before drug intervention and 10 minutes after different doses of drug intervention respectively. A drug dose-effect curve was plotted by taking the area under the smooth muscle contraction curve caused by PGF2α as 100%, to calculate the median effective dose (IC50 value) of the drug for inhibiting uterine smooth muscle contraction.

[2] = tested on: Kunming male mice; experiment: acetic acid writhing test on mice; format: in vivo, mouse
[3] = tested on: Mouse mononuclear macrophage RAW 264.7; experiment: nitric oxide production by LPS-stimulated macrophages (Griess assay); format: cell-based; conditions: for Maximum inhibition rate: in %; for IC50: read-out: IC50, NO production
[4] = PGF2α (450 nM), area under the contraction curve 10 minutes after drug
[5] = Table 6, 200 mg/Kg intragastric
[6] = Table 6, 200 mg/Kg intragastric, within 30 min
[7] = Rattus norvegicus, 10 min, PGF2α (450 nM), area under the contraction curve 10 minutes after drug
[8] = Mus musculus, RAW264.7, LPS 1 μg/mL, 24 h

Compound	Writhe starting time ([2]; 200 mg/Kg intragastric)	effect on number of writhing times ([2]; 200 mg/Kg intragastric)	Writhe starting time [2, 5]	Number of writhing times [2, 6]	IC50 [1, 7]	Maximum inhibition rate ([3]; LPS 1 μg/mL, 24 h)	also measured
CNC(=O)/C(=N/OC)c1ccccc1COc1cc(C)ccc1C [Dimoxystrobin, dimoxystrobin]	not prolonged	obviously inhibited	3.3 ± 0.5 min	31.5 ± 4.7	–	–	IC50 [1, 4]: 1650 ± 120 nM
CO/N=C(/C1=NOCCO1)c1ccccc1Oc1ncnc(Oc2ccccc2Cl)c1F [Fluoxastrobin, fluoxastrobin]	–	–	–	–	2630 ± 300 nM	–	–
CO/C(=C/C(N)=O)[C@H](C)[C@H](/C=C/c1csc(-c2csc([C@@H](C)/C=C/C=C/C(C)C)n2)n1)OC [Myxothiazol, myxothiazol, reference compound]	–	–	–	–	–	95%	IC50 ([3]; LPS 1 μg/mL, 24 h): 2.8 nM; inhibitory effect on PGF2α-induced contraction ([1]; PGF2α (450 nM)): strongest inhibitory effect; IC50 values (level in words) ([1]; PGF2α-induced): nanomolar level; IC50 ([1]; PGF2α-induced): 215 nM
CO/C=C(/C(=O)OC)c1ccccc1COc1cccc(C(F)(F)F)n1 [Picoxystrobin, picoxystrobin]	not prolonged	obviously inhibited	3.3 ± 1.0 min	29.3 ± 4.7	–	–	IC50 [1, 4]: 1200 ± 20 nM
COC(=O)N(OC)c1ccccc1COc1ccn(-c2ccc(Cl)cc2)n1 [Pyraclostrobin, pyraclostrobin]	–	–	–	–	1050 ± 10 nM	–	–
C/C=C(C)/C=C/C=C/[C@H](OC)[C@@H](C)[C@@H](OC)[C@@H](C)CCc1oc2c(O)c(OC)cc(OC)c2c(=O)c1C [Stigmatellin, reference compound]	–	–	–	–	–	88.3±3.9%	IC50 ([3]; Mus musculus, RAW264.7, 24 h): 6.24 ± 1.15 nM; inhibitory effect on PGF2α-induced contraction ([1]; PGF2α (450 nM)): strongest inhibitory effect; IC50 values (level in words) ([1]; PGF2α-induced): nanomolar level; IC50 ([1]; Rattus norvegicus, PGF2α-induced): 89.9 nM
CC(C)c1c(C(=O)Nc2ccccc2)c(-c2ccccc2)c(-c2ccc(F)cc2)n1CC[C@@H](O)C[C@@H](O)CC(=O)O [atorvastatin, reference compound]	–	–	–	–	8440 ± 700 nM	–	–
O=C1C(O)=C([C@H]2CC[C@H](c3ccc(Cl)cc3)CC2)C(=O)c2ccccc21 [atovaquone, reference compound]	–	–	–	–	8440 ± 700 nM	–	–
CO/N=C(/C(=O)OC)c1ccccc1COc1ccccc1C [kresoxim-methyl]	not prolonged	obviously inhibited	3.4 ± 1.0 min	33.0 ± 2.9	4080 ± 290 nM	88.7 ± 5.6%	IC50 [3, 8]: 2770 ± 690 nM
CON=C(C(=O)OC)c1ccccc1CON=C(C)c1cccc(C(F)(F)F)c1 [trifloxystrobin]	–	–	–	–	1770 ± 50 nM	90.7 ± 2.9%	IC50 [3, 8]: 640 ± 210 nM; curative effect compared with indomethacin ([2]; 100 mg/Kg versus indomethacin 50 mg/Kg): equivalent to indomethacin at 50 mg/Kg; writhe starting time (reaction latency) compared with control group ([2]; FAPM and trifloxystrobin intraperitoneal, azoxystrobin intragastric): significantly prolonged; Number of writhing times ([2]; Table 4, 50 mg/Kg intraperitoneal, within 30 min): 22.3 ± 1.2; Writhe starting time ([2]; ip, 50 mg/kg): 3.3 ± 0.5 min; Writhe starting time ([2]; ip, 100 mg/kg): 4.3 ± 1.6 min; Number of writhing times ([2]; ip, 100 mg/kg, 0.5 h): 14.0 ± 1.7; Writhe starting time ([2]; ip, 200 mg/kg): 8.5 ± 2.4 min; Number of writhing times ([2]; ip, 200 mg/kg, 0.5 h): 4.0 ± 2.3
